Laboratory results: patent US7977346B2, “Spiro compounds and methods of use” (priority 2006, dated 2011)

Assays:
[1] = test system: colon LOVO cell line; test: MTT assay against colon LOVO cell line; format: cell-based, human
Excerpt: (§1) The following in vitro results are activities of some compounds in present invention against human tumor NSCLC A549 cell line and colon LOVO cell line in MTT assay.

[2] = test system: human tumor NSCLC A549 cell line; test: MTT assay against human tumor NSCLC A549 cell line; format: cell-based
Excerpt: as §1

Molecule | IC50 [1] [nM] | IC50 [2] [nM]
COc1cc2ncnc(Nc3ccc(F)c(Cl)c3)c2cc1OCCCN1CC2(CC2)C2(C1)OCCO2 [Example 20, N-(3-chloro-4-fluorophenyl)-7-methoxy-6-[3-(5,8-Dioxa-10-azadispiro[2.0.4.3]undecane)propoxy]quinazolin-4-amine] | 0.0375 | 0.0619
COc1cc2ncnc(Nc3ccc(F)c(Cl)c3)c2cc1OCCN1CC2(CC2)C2(C1)OCCO2 [Example 21, N-(3-chloro-4-fluorophenyl)-7-methoxy-6-[2-(5,8-Dioxa-10-azadispiro[2.0.4.3]undecane)ethoxy]quinazolin-4-amine] | 0.139 | 0.0421
COc1cc2ncnc(Nc3ccc(F)c(Cl)c3)c2cc1OCCCN1CC(=O)C2(CC2)C1 [Example 22, N-(3-chloro-4-fluorophenyl)-7-methoxy-6-[3-(5-azaspiro[2.4]heptan-7-one)propoxy]quinazolin-4-amine] | 0.0329 | 0.0359
COc1cc2ncnc(Nc3ccc(F)c(Cl)c3)c2cc1OCCN1CC(=O)C2(CC2)C1 [Example 23, N-(3-chloro-4-fluorophenyl)-7-methoxy-6-[2-(5-azaspiro[2.4]heptan-7-one)ethoxy]quinazolin-4-amine] | 0.219 | 0.0893
COc1cc2ncnc(Nc3ccc(F)c(Cl)c3)c2cc1OCCCN1CC(O)C2(CC2)C1 (centres unmarked) [Example 24, N-(3-chloro-4-fluorophenyl)-7-methoxy-6-[3-(5-azaspiro[2.4]heptan-7-ol)propoxy]quinazolin-4-amine] | 0.165 | 0.0375
COc1cc2ncnc(Nc3ccc(F)c(Cl)c3)c2cc1OCCN1CC(O)C2(CC2)C1 (centres unmarked) [Example 25, N-(3-chloro-4-fluorophenyl)-7-methoxy-6-[2-(5-azaspiro[2.4]heptan-7-ol)ethoxy]quinazolin-4-amine] | 0.0954 | 0.0573
COc1cc2ncnc(Nc3ccc(F)c(Cl)c3)c2cc1OCCCN1CC(OC)C2(CC2)C1 (centres unmarked) [Example 26, N-(3-chloro-4-fluorophenyl)-7-methoxy-6-[3-(7-methoxy-5-azaspiro[2.4]heptane)propoxy]quinazolin-4-amine] | 0.0376 | 0.091
COc1cc2ncnc(Nc3ccc(F)c(Cl)c3)c2cc1OCCN1CC(OC)C2(CC2)C1 (centres unmarked) [Example 27, N-(3-chloro-4-fluorophenyl)-7-methoxy-6-[2-(7-methoxy-5-azaspiro[2.4]heptane)ethoxy]quinazolin-4-amine] | 0.0978 | 0.212
C#Cc1cccc(Nc2ncnc3cc(OC)c(OCCN4CC5(CC5)C5(C4)OCCO5)cc23)c1 [Example 28, N-(3-ethynylphenyl)-7-methoxy-6-[2-(5,8-Dioxa-10-azadispiro[2.0.4.3]undecane)ethoxy]quinazolin-4-amine] | 0.0376 | 0.096
C#Cc1cccc(Nc2ncnc3cc(OC)c(OCCN4CC(=O)C5(CC5)C4)cc23)c1 [Example 29, N-(3-ethynylphenyl)-7-methoxy-6-[2-(5-azaspiro[2.4]heptan-7-one)ethoxy]quinazolin-4-amine] | 0.0934 | 0.104
C#Cc1cccc(Nc2ncnc3cc(OC)c(OCCN4CC(O)C5(CC5)C4)cc23)c1 (centres unmarked) [Example 30, N-(3-ethynylphenyl)-7-methoxy-6-[2-(5-azaspiro[2.4]heptan-7-ol)ethoxy]quinazolin-4-amine] | 0.0272 | 0.0749
COc1cc2ncnc(Nc3cccc(C(F)(F)F)c3)c2cc1OCCN1CC2(CC2)C2(C1)OCCO2 [Example 31, N-(3-trifluoromethylphenyl)-7-methoxy-6-[2-(5,8-Dioxa-10-azadispiro[2.0.4.3]undecane)ethoxy]quinazolin-4-amine] | 0.098 | 0.0546
COc1cc2ncnc(Nc3cccc(Br)c3)c2cc1OCCN1CC2(CC2)C2(C1)OCCO2 [Example 32, N-(3-bromophenyl)-7-methoxy-6-[2-(5,8-Dioxa-10-azadispiro[2.0.4.3]undecane)ethoxy]quinazolin-4-amine] | 0.032 | 0.028
COc1cc2ncnc(Nc3ccc(Cl)c(Cl)c3)c2cc1OCCN1CC2(CC2)C2(C1)OCCO2 [Example 33, N-(3,4-dichlorophenyl)-7-methoxy-6-[2-(5,8-Dioxa-10-azadispiro[2.0.4.3]undecane)ethoxy]quinazolin-4-amine] | 0.118 | 0.0519
COc1cc2ncnc(Nc3ccc(F)c(Cl)c3)c2cc1OCCCN1CC2(CC2)C2(C1)OCCS2 (centres unmarked) [Example 34, N-(3-chloro-4-fluorophenyl)-7-methoxy-6-[3-(5,8-Oxathiolane-10-azadispiro[2.0.4.3]undecane)propoxy]quinazolin-4-amine] | 0.171 | 0.034
COc1cc2c(Nc3ccc(Br)cc3F)ncnc2cc1OCCCN1CC2(CC2)C2(C1)OCCO2 [Example 35, N-(2-fluoro-4-bromophenyl)-6-methoxy-7-[3-(5,8-Dioxa-10-azadispiro[2.0.4.3]undecane)propoxy]quinazolin-4-amine] | 0.0318 | 0.0402
COc1cc2c(Nc3ccc(Br)cc3F)ncnc2cc1OCCN1CC2(CC2)C2(C1)OCCO2 [Example 36, N-(2-fluoro-4-bromophenyl)-6-methoxy-7-[2-(5,8-Dioxa-10-azadispiro[2.0.4.3]undecane)ethoxy]quinazolin-4-amine] | 0.057 | 0.022
COc1cc2ncnc(Nc3ccc(F)c(Cl)c3)c2cc1OCCN1CC2(CC2)C2(C1)OCCS2 (centres unmarked) [Example 37, N-(3-chloro-4-fluorophenyl)-7-methoxy-6-[2-(5,8-Oxathiolane-10-azadispiro[2.0.4.3]undecane)ethoxy]quinazolin-4-amine] | 0.0553 | 0.132
COc1cc2ncnc(Nc3ccc(F)c(Cl)c3)c2cc1OCCN1CC2(CC2)C2(C1)OCCCO2 [Example 38, N-(3-chloro-4-fluorophenyl)-7-methoxy-6-[2-(5,9-Dioxa-11-azadispiro[2.0.4.3]dodecane)ethoxy]quinazolin-4-amine] | 0.143 | 0.073
COc1cc2ncnc(Nc3ccc(F)c(Cl)c3)c2cc1OCCN1CC2(CC2)C2(C1)OCC(C)(C)CO2 [Example 39, N-(3-chloro-4-fluorophenyl)-7-methoxy-6-[2-(5,9-Dioxa-7,7-dimethyl-11-azadispiro[2.0.4.3]dodecane)ethoxy]quinazolin-4-amine] | 0.03 | 0.023
COc1cc2ncnc(Nc3ccc(F)c(Cl)c3)c2cc1OCCCN1CC2(CC2)C2(C1)OCC(C)(C)CO2 [Example 41, N-(3-chloro-4-fluorophenyl)-7-methoxy-6-[3-(5,9-Dioxa-7,7-dimethyl-11-azadispiro[2.0.4.3]dodecane)propoxy]quinazolin-4-amine] | 0.129 | 0.075
N-(3-chloro-4-fluorophenyl)-7-methoxy-6-[3-(5,9-Dioxa-11-azadispiro[2.0.4.3]dodecane)propoxy]quinazolin-4-amine [Example 40] | 0.029 | 0.042
